Experimental data from article PMC6411960, “Discovery of Novel Androgen Receptor Ligands by Structure-based Virtual Screening and Bioassays” (Genomics, Proteomics & Bioinformatics, 2019).
Read-outs that look alike come from different tables or passages of the source.

Tests used:
LNCaP cells = test: MTT cell proliferation assay, LNCaP; assay type: cell-based; settings: for inhibition at 10 µM: Homo sapiens, LNCaP cell line, compound at 10 μM; for effect on growth of LNCaP cells: various concentrations; for change in cell viability / decrease in cell viability: 30 µM, versus cells not treated; for change in cell viability: P = 0.0001
Method: 3-(4,5-Dimethythiazol-2-yl)-2,5-diphenyl-2-H-tetrazolium bromid (MTT) colorimetric assay was utilized to evaluate cell proliferation, which can reflect the bioactivity and cytotoxicity of test compounds at cellular level. […] After incubation at 37 °C for 24 h, cells were treated with serial dilutions of indicated compounds (and 1 nM DHT for LNCaP culture) and incubated for another 3 days. Afterward, 10 μl of 5 mg/ml MTT solution was added into each well and further incubated for another 4 h. Then, 100 μl of triplex 10% SDS-0.1% HCl-PBS solutions were added to dissolve the formazan deposited on the bottom of the plates and the plates were then further retained in incubator overnight. The absorbance at 570 nm was measured with the reference wavelength at 650 nm with a spectrophotometer (Bioteck Eon, Winooski, VT).

[1] = test system: AR transcriptional activity; test: LNCaP-ARR2PB-eGFP transcriptional activity assay, antagonist mode (with DHT); assay type: cell-based; settings: for EC50: read-out: Antagonistic EC50; for effect on eGFP expression: 10 µM compound in the presence of 1 nM DHT, versus DHT control
[2] = test system: AR transcriptional activity; test: LNCaP-ARR2PB-eGFP transcriptional activity assay, agonist mode (without DHT); assay type: cell-based
Method: 1 nM DHT was added for background fluorescence. In addition, cells receiving equal volume of DMSO solution with (dark gray bar) or without (light gray bar) DHT served as controls too. […] C. […] The test concentrations range from 0.001 nM to 10 µM. DHT served as the positive control. Assays were performed in triplicate. Multiple group comparisons were analyzed with 1-way ANOVA (**, P < 0.05 were considered statistically significant).
The agonistic effects of the screened compounds were analyzed by stimulating the cell growth of LNCaP-ARR2PB-eGFP without prior addition of DHT. Cells were incubated with various concentrations of HBP1-3, HBP1-17, HBP1-38, and HBP1-51, respectively, ranging from 1 × 10^−3 nM to 1 × 10^4 nM (Figure 4C).
A cell line of LNCaP that stably expresses eGFP under the regulation of an androgen response element was generated to investigate the agonist/antagonist activity of the selected compounds as previously described, [34]. […] For lentiviral infection, LNCaP cells were plated and proliferated to a confluence of 60% before adding 5 ml of the collected lentivirus. Medium was refreshed 16 h later and cells were incubated for another two days. GFP expression in the transfected cell was examined with a fluorescent microscope. Subsequently, the infected cells were cultured in complete medium containing 1 μg/ml puromycin. This procedure was repeated for three cycles in the next subculture process to adequately eliminate the non-transfected clones. Cells surviving the screening process were AR-regulated eGFP-expressing LNCaP cells (LNCaP-ARR2PB-eGFP) and were cultured for subsequent antagonist/agonist assay.

C4-2 cells = test: MTT cell proliferation assay, C4-2; assay type: cell-based; settings: for reduction of cell viability: C4-2, 30 µM, versus cells without treatment
Description: We further tested C4-2, an androgen-independent AR^+ PCa cell line, which is more malignant than LNCaP. […] Given inhibitory effect was only observed at higher concentrations, it remains to be addressed whether the inhibition is attributed to AR blocking or the inherent toxicities of the tested compounds. We thus tested these compounds on DU145, an AR^− PCa cell line.
3-(4,5-Dimethythiazol-2-yl)-2,5-diphenyl-2-H-tetrazolium bromid (MTT) colorimetric assay was utilized to evaluate cell proliferation, which can reflect the bioactivity and cytotoxicity of test compounds at cellular level. PCa cells were cultured in 1640 RPMI media containing 5% charcoal-stripped serum (CSS) at a density of 5000 cells per well for LNCaP, 1000 cells per well for C4-2, and 2000 cells per well for DU145 in 96-well plates. After incubation at 37 °C for 24 h, cells were treated with serial dilutions of indicated compounds (and 1 nM DHT for LNCaP culture) and incubated for another 3 days. Afterward, 10 μl of 5 mg/ml MTT solution was added into each well and further incubated for another 4 h. Then, 100 μl of triplex 10% SDS-0.1% HCl-PBS solutions were added to dissolve the formazan deposited on the bottom of the plates and the plates were then further retained in incubator overnight. The absorbance at 570 nm was measured with the reference wavelength at 650 nm with a spectrophotometer (Bioteck Eon, Winooski, VT).

AR-LBD = target: T1, AR-LBD (Homo sapiens, UniProt P10275); test: PolarScreen AR competitor assay (fluorescence polarization); assay type: binding; settings: competition with Flu-AR ligand; for EC50: gradient concentrations 0.1–100 µM, read-out: Binding EC50; for IC50: 0.1–100 µM, read-out: IC50, binding to AR-LBD
T1 sequence (P10275 669-900 limits assumed): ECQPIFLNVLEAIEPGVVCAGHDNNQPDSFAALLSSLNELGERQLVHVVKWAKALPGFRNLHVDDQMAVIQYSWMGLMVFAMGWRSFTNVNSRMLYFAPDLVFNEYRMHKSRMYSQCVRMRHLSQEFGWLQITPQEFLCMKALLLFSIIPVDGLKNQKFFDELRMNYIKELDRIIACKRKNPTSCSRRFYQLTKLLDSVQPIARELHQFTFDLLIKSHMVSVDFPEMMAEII

[3] = without DHT, 1 × 10^−3 nM to 1 × 10^4 nM
[4] = LNCaP-ARR2PB-eGFP, in the presence of DHT

| Compound | inhibition at 10 µM (LNCaP cells) | effect on growth of LNCaP cells (LNCaP cells; LNCaP) | reduction of cell viability (C4-2 cells) | effect on eGFP expression [1] | agonistic effect on eGFP expression [2, 3] | EC50 (AR-LBD) | further results |
| --- | --- | --- | --- | --- | --- | --- | --- |
| CC(O)(CS(=O)(=O)c1ccc(F)cc1)C(=O)Nc1ccc(C#N)c(C(F)(F)F)c1 (centres unmarked) [Bic, bicalutamide, reference compound] | 16.5 ± 1% | reduced the growth of LNCaP cells in a dose-dependent manner |  |  |  |  | EC50 [1]: 0.69 ± 0.085 µM |
| C[C@]12CCC(=O)C[C@@H]1CC[C@@H]1[C@@H]2CC[C@]2(C)[C@@H](O)CC[C@@H]12 [DHT, dihydrotestosterone, reference compound] |  |  |  |  |  |  | agonistic effect on eGFP expression [2]: upregulated eGFP expression in a dose-dependent manner |
| CNC(=O)c1ccc(N2C(=S)N(c3ccc(C#N)c(C(F)(F)F)c3)C(=O)C2(C)C)cc1F [Enz, enzalutamide, reference compound] |  | reduced the growth of LNCaP cells in a dose-dependent manner |  |  |  |  |  |
| Nc1ccc2c(c1)C(=O)N(c1cccc3ccccc13)C2=O [HBP1-3] | 7.8 ± 4.4% |  | 12% | did not show obvious effect on eGFP expression | did not cause notable change | > 30 µM | change in cell viability (LNCaP cells; LNCaP): significant decrease in cell viability |
| O=C(CC1C(=O)NCCN1Cc1cccc2ccccc12)NCCn1ccc2ccccc21 (centres unmarked) [HBP1-17] | 7.8 ± 4.1% |  | 10% | did not show obvious effect on eGFP expression | did not cause notable change | > 30 µM | decrease in cell viability (LNCaP cells; LNCaP): ≥ 20% |
| COc1ccc(CC2(CCC(=O)NCCn3ccc4ccccc43)CCC(=O)N2)c2ccccc12 (centres unmarked) [HBP1-38] | 18.6 ± 4.7% |  | ~40% | promoted eGFP expression | did not cause notable change | > 30 µM | inhibitory effect on LNCaP growth (LNCaP cells; LNCaP, 10 µM): inhibitory effect comparable to Bic; decrease in cell viability (LNCaP cells; LNCaP): ≥ 40% |
| Cc1cc(O)nc2ccc(S(=O)(=O)Nc3ccc(O)cc3)cc12 [HBP1-51] |  | did not show apparent inhibition tendency |  | promoted eGFP expression | dose-dependent upregulation of GFP expression | 3.96 µM | maximum increase of cell viability (C4-2 cells; C4-2, all tested concentrations, versus untreated cells, not significant (P = 0.14)): below 20%; Antagonistic EC50 [1, 4]: Agonist; IC50 (AR-LBD): 3.96 µM |
| Cc1ccccc1NCC(=O)N/N=C/c1ccc(-c2ccc(Cl)c(Cl)c2)o1 [HBP1-58] | 2.2 ± 0.8% |  |  | significantly reduced eGFP expression |  | 4.92 µM | change in cell viability (LNCaP cells; LNCaP): significant decrease in cell viability; EC50 [1, 4]: 3.25 ± 0.43 µM; IC50 ([1]; LNCaP-ARR2PB-eGFP, with DHT, read-out: IC50, antagonistic effect on AR transcriptional activity): 3.25 ± 0.43 µM; IC50 (AR-LBD): 4.92 µM |
